Patent US9234200B2, “Oligonucleotide, glucocorticoid sensitivity enhancer, pharmaceutical composition, and expression vector” (National University Corporation Tokyo University of …, priority 2011, dated 2016)
Read-outs that look alike come from different tables or passages of the source.

What was measured:
[1] = system: GRα and GRβ; settings: HT-29 cells and MCF-7 cells; in words; cited from earlier work
[2] = system: Raji cells; experiment: BrdU incorporation assay, glucocorticoid sensitivity of oligonucleotide 4-expressing Raji cells; type: cell-based, human; settings: for BrdU incorporation: absorbance
Protocol: In order to examine the glucocorticoid sensitivity of the oligonucleotide 4-expressin Raji cells, BrdU incorporation assay was performed in the same manner as in Example 2, and cell proliferation was quantified. The concentration of dexamethasone was set to 0 μM (no addition) or 5 μM. Each experiment was repeated in triplicate. The values shown in Table 13 are average of thereof.

[3] = system: Raji cells; experiment: BrdU incorporation assay, glucocorticoid sensitivity of oligonucleotide-transfected Raji cells; type: cell-based, human; settings: for BrdU incorporation: absorbance at 450 nm
Protocol: In order to examine the change of glucocorticoid sensitivity of cells caused by introduction of oligonucleotide 1, cell proliferation was quantified by a 5-bromo-2′-deoxyuridine (BrdU) incorporation assay. Dexamethasone (manufactured by Biomol) was used as a glucocorticoid. The concentration of dexamethasone was set to varied concentrations of 0 μM (no addition), 0.1 μM, 0.5 μM, 1 μM, 5 μM, and 10 μM.
Raji cells were cultured in serum-free RPMI1640 medium for 12 hours to synchronize the cell cycle, and then re-suspended in RPMI1640 medium supplemented with serum and inoculated onto a 96-well plate.
After dexamethasone was added, the cells were cultured for 22 hours. Then, BrdU was added thereto, and the cells were cultured for another 2 hours. After centrifugation, the supernatant was discarded, and the cells were dried and fixed. The fixed cells were allowed to react with a peroxidase-labeled anti-BrdU antibody for 1 hour at room temperature. Subsequently, the cells were washed three times with PBS, and tetramethylbenzidine was added thereto. When noticeable coloring was observed, the reaction was stopped by adding H2SO4 (1M). After vigorous agitation, absorbance at 450 nm was measured using a plate reader.
Using the Raji cells to which dexamethasone was not added as a control, cell proliferation inhibitory rate (%) was calculated based on the relative ratio of the obtained absorbance. Here, statistical significance was assessed with one-way analysis of variance and multiple comparison. Tukey's multiple comparison was used for the multiple comparison. A significance level of P<0.05 (vs. no addition of oligonucleotide) was regarded as a significant difference.
BrdU incorporation assay was performed in the same manner as in the above, and alternation of the glucocorticoid sensitivity of the cells caused by the introduction of any one of oligonucleotides 2 to 5 was examined. Each experiment was carried out in quadruplicate. The values shown in Table 7 are average values thereof.

[4] = system: ERα and ERβ; experiment: Estrogen receptor expression level in Raji cells transfected with oligonucleotide 1 (RT-PCR and PCR); type: cell-based, human
Protocol: Estrogen receptor (ER) has two splice variants: ERα and ERβ. It is known that SRp30c is involved in regulating the splicing of ER mRNA.
The expressions levels of ERα and ERβ in Raji cells transfected with oligonucleotide 1 were determined by RT-PCR and PCR.
Raji cells transfected with oligonucleotide 1 were obtained in the same manner as in “Cell Culture” and “Introduction of Oligonucleotide into Cells” in Example 1. The oligonucleotide 1 concentration at the time of introduction into cells was 300 nM.
After the Raji cells were washed with PBS, RNA was extracted using a FASTPURE RNA Kit (manufactured by Takara Bio Inc.), and reverse transcription was performed using a PRIMESCRIPT 1st strand cDNA synthesis kit (manufactured by Takara Bio). The obtained cDNA was amplified using PLATINUM Taq DNA polymerase (manufactured by Invitrogen) and PCR primers (having the sequences shown in Table 8) specific for the gene of interest. The PCR conditions included: performing an initial denaturation at 94° C. for 2 minutes; performing 35 cycles of denaturation (94° C. for 30 seconds), annealing (55° C. for 30 seconds), and extension (72° C. for 1 minute); and performing a final extension at 72° C. for 4 minutes.
The expression level of GAPDH as an endogenous control was determined using PCR primers of SEQ ID Nos: 10 and 11.
After the PCR was performed, DNA was separated by […] electrophoresis on a 2% agarose gel containing ethidium bromide, and the intensity of bands was quantified using an image analyzer GEL PRINT 2000i/VGA (manufactured by Genomic Solutions Inc.).

[5] = system: GRα and GRβ; experiment: GRα and GRβ expression levels in Raji cells transfected with oligonucleotide (RT-PCR and PCR); type: cell-based, human; settings: for GAPDH / GRα / GRβ: expression level (band intensity), oligonucleotide 300 nM by electroporation, 24 h; for GAPDH: endogenous control;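 on GAPDH: mean of three independent experiments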
Protocol: Raji cells (manufactured by Japan Health Science Foundation) derived from human Burkitt's lymphoma were used in experiments.
Raji cells were cultured and maintained in RPMI1640 medium (manufactured by Gibco) at 37° C. in an atmosphere of 5% CO2, the RPMI1640 medium being supplemented with 10% fetal bovine serum (FBS) (manufactured by Filtoron), 100 U/ml penicillin, and 100 μg/ml streptomycin.
2×10^6 Raji cells were washed with phosphate-buffered saline (PBS) and suspended in 100 μl transfection reagent of an Amaxa cell line Nucleofector Kit V (manufactured by Lonza).
After the Raji cells were cultured in the above-described medium for 24 hours, the Raji cells were used for subsequent experiments.
The expression level of glyceraldehyde-3-phosphate dehydrogenase (GAPDH) was determined as an endogenous control.
After the Raji cells were washed with PBS, RNA was extracted using a FastPure RNA Kit (manufactured by Takara Bio Inc.), and reverse transcription was performed using a PrimeScript 1st strand cDNA synthesis kit (manufactured by Takara Bio Inc.). The obtained cDNA was amplified using Platinum Taq DNA polymerase (manufactured by Invitrogen) and PCR primers (having the base sequences shown in Table 2) specific for the gene of interest. The PCR conditions included: performing initial denaturation at 94° C. for 2 minutes; performing 35 cycles of denaturation (94° C. for 30 seconds), annealing (55° C. for 30 seconds), and extension (72° C. for 1 minute); and then performing final extension at 72° C. for 4 minutes.
After the PCR was performed, DNA was separated by […] electrophoresis on a 2% agarose gel containing ethidium bromide, and the intensity of bands was quantified using an image analyzer GEL PRINT 2000i/VGA (manufactured by Genomic Solutions).

[6] = system: GRα and GRβ; experiment: GRα and GRβ expression levels in oligonucleotide 4-expressing Raji cells
[7] = dexamethasone 0.1 μM, triplicate, label dexamethasone = no oligonucleotide introduced
[8] = dexamethasone 0.5 μM, triplicate, label dexamethasone = no oligonucleotide introduced
[9] = dexamethasone 1 μM, triplicate, label dexamethasone = no oligonucleotide introduced
[10] = dexamethasone 5 μM, triplicate, label dexamethasone = no oligonucleotide introduced
[11] = dexamethasone 10 μM, triplicate, label dexamethasone = no oligonucleotide introduced
[12] = expression level (band intensity), oligonucleotide 1 300 nM
[13] = Raji cells constitutively expressing oligonucleotide 4
[14] = expression level (band intensity), Raji cells constitutively expressing oligonucleotide 4 (retrovirus vector)
[15] = expression level (band intensity), Raji cells constitutively expressing oligonucleotide 4 (retrovirus vector), listed as oligonucleotide 4

Nc1ncn([C@H]2C[C@H](O)[C@@H](CO)O2)c(=O)n1 [5-aza-2′-deoxycytidine]
GRα and GRβ expression levels [1]: increase GRα expression levels while decreasing GRβ expression levels

C[C@@H]1C[C@H]2[C@@H]3CCC4=CC(=O)C=C[C@]4(C)[C@@]3(F)[C@@H](O)C[C@]2(C)[C@@]1(O)C(=O)CO [dexamethasone, reference compound]
BrdU incorporation ([2]; dexamethasone 5 μM, label dexamethasone = Control Raji cell): 1.07
inhibition at 0.1 µM ([3]; Homo sapiens, Raji, dexamethasone 0.1 μM vs no dexamethasone, triplicate, label dexamethasone = no oligonucleotide introduced, read-out: cell proliferation inhibitory rate): 13.4%
inhibition at 0.1 µM ([3]; Homo sapiens, Raji, dexamethasone 0.1 μM, quadruplicate (Table 7), label dexamethasone = no oligonucleotide transfected, read-out: cell proliferation inhibitory rate): 13.2%
inhibition at 0.5 µM ([3]; Homo sapiens, Raji, dexamethasone 0.5 μM vs no dexamethasone, triplicate, label dexamethasone = no oligonucleotide introduced, read-out: cell proliferation inhibitory rate): 16.2%
inhibition at 0.5 µM ([3]; Homo sapiens, Raji, dexamethasone 0.5 μM, quadruplicate (Table 7), label dexamethasone = no oligonucleotide transfected, read-out: cell proliferation inhibitory rate): 17.6%
inhibition at 1 µM ([3]; Homo sapiens, Raji, dexamethasone 1 μM vs no dexamethasone, triplicate, label dexamethasone = no oligonucleotide introduced, read-out: cell proliferation inhibitory rate): 12.6%
inhibition at 1 µM ([3]; Homo sapiens, Raji, dexamethasone 1 μM, quadruplicate (Table 7), label dexamethasone = no oligonucleotide transfected, read-out: cell proliferation inhibitory rate): 22.2%
inhibition at 5 µM ([3]; Homo sapiens, Raji, dexamethasone 5 μM vs no dexamethasone, triplicate, label dexamethasone = no oligonucleotide introduced, read-out: cell proliferation inhibitory rate): 23.3%
inhibition at 5 µM ([3]; Homo sapiens, Raji, dexamethasone 5 μM, quadruplicate (Table 7), label dexamethasone = no oligonucleotide transfected, read-out: cell proliferation inhibitory rate): 21.7%
inhibition at 10 µM ([3]; Homo sapiens, Raji, dexamethasone 10 μM vs no dexamethasone, triplicate, label dexamethasone = no oligonucleotide introduced, read-out: cell proliferation inhibitory rate): 23.9%
BrdU incorporation [3, 7]: 0.475
BrdU incorporation [3, 8]: 0.461
BrdU incorporation [3, 9]: 0.479
BrdU incorporation [3, 10]: 0.422
BrdU incorporation [3, 11]: 0.418

CCCC(=O)[O-].[Na+] [sodium butyrate]
GRα and GRβ expression levels [1]: increase GRα expression levels while decreasing GRβ expression levels

CC(/C=C/C(=O)NO)=C\[C@@H](C)C(=O)c1ccc(N(C)C)cc1 [trichostatin A]
GRα and GRβ expression levels [1]: increase GRα expression levels while decreasing GRβ expression levels

Oligonucleotide 1: an oligonucleotide having a base sequence represented by SEQ ID NO: 1 (5′-CTTTCTGGTTTTAACCACATAACATTCTATA-3′) (listed as DNA, chemistry not given here)
GAPDH ([4]; expression level (band intensity), endogenous control, oligonucleotide 1 300 nM): 2476.113
ERα [4, 12]: 2201.941
ERβ [4, 12]: 1299.820
regulation of the splicing of ER mRNA ([4]; in words): does not affect the regulation of the splicing of ER mRNA
ERα/ERβ ([4]; oligonucleotide 1 300 nM): 1.694
ERα/GAPDH ([4]; oligonucleotide 1 300 nM): 0.889
ERβ/GAPDH ([4]; oligonucleotide 1 300 nM): 0.525
Relative value of ERα/ERβ ([4]; oligonucleotide 1 300 nM, cells not transfected = 1): approximately 1
Relative value of ERα/ERβ ([4]; oligonucleotide 1 300 nM, cells not transfected = 1, listed as 1): 1.001
BrdU incorporation ([3]; dexamethasone 0 μM, triplicate): 0.556
BrdU incorporation [3, 7]: 0.372
BrdU incorporation [3, 8]: 0.286
BrdU incorporation [3, 9]: 0.292
BrdU incorporation [3, 10]: 0.271
BrdU incorporation [3, 11]: 0.279
cell proliferation inhibitory rate ([3]; dexamethasone 0.1 μM vs no dexamethasone, triplicate, label dexamethasone = no oligonucleotide introduced): 32.874%
cell proliferation inhibitory rate ([3]; dexamethasone 0.5 μM vs no dexamethasone, triplicate, label dexamethasone = no oligonucleotide introduced): 48.364%
cell proliferation inhibitory rate ([3]; dexamethasone 1 μM vs no dexamethasone, triplicate, label dexamethasone = no oligonucleotide introduced): 47.553%
cell proliferation inhibitory rate ([3]; dexamethasone 5 μM vs no dexamethasone, triplicate, label dexamethasone = no oligonucleotide introduced): 50.624%
cell proliferation inhibitory rate ([3]; dexamethasone 10 μM vs no dexamethasone, triplicate, label dexamethasone = no oligonucleotide introduced): 49.526%
BrdU incorporation on addition of dexamethasone, compared to Raji cells not transfected ([3]; in words): significant reduction in BrdU incorporation
cell proliferation inhibitory rate on addition of dexamethasone, compared to Raji cells not transfected ([3]; in words): significant increase in cell proliferation inhibitory rate
glucocorticoid sensitivity of cells ([3]; in words): increased the glucocorticoid sensitivity of cells
GAPDH [5]: 3033.167
GRα [5]: 3278.767
GRβ [5]: 4611.084
GRα/GAPDH ([5]; oligonucleotide 300 nM): 1.082
GRβ/GAPDH ([5]; oligonucleotide 300 nM): 1.519
Relative value of GRα/GRβ ([5]; oligonucleotide 300 nM, cells not transfected = 1): 1.213
expression level of GRβ, concentration dependency ([5]; various concentrations of oligonucleotide 1): decreased the expression level of GRβ in a concentration-dependent manner

Oligonucleotide 4: an oligonucleotide having a base sequence represented by SEQ ID NO: 4 (5′-TTTGTCCCCATTATATAGCATTT-3′) (listed as DNA, chemistry not given here)
BrdU incorporation ([2]; oligonucleotide 4-expressing Raji cell, dexamethasone 0 μM): 1.13
glucocorticoid sensitivity ([2]; constitutive expression of oligonucleotide 4 in Raji cells, in words): increases glucocorticoid sensitivity
cell proliferation inhibitory rate ([3]; dexamethasone 0.1 μM, quadruplicate (Table 7), label dexamethasone = no oligonucleotide transfected): 12.464%
cell proliferation inhibitory rate ([3]; dexamethasone 0.5 μM, quadruplicate (Table 7), label dexamethasone = no oligonucleotide transfected): 23.397%
cell proliferation inhibitory rate ([3]; dexamethasone 1 μM, quadruplicate (Table 7), label dexamethasone = no oligonucleotide transfected): 28.863%
cell proliferation inhibitory rate ([3]; dexamethasone 5 μM, quadruplicate (Table 7), label dexamethasone = no oligonucleotide transfected): 28.061%
GAPDH [5]: 2991.776
GRα [5]: 3157.440
GRβ [5]: 4592.806
GRα/GAPDH ([5]; oligonucleotide 300 nM): 1.057
GRβ/GAPDH ([5]; oligonucleotide 300 nM): 1.533
GRα/GAPDH [6, 13]: 0.747
GRβ/GAPDH [6, 13]: 0.290
GAPDH ([6]; expression level (band intensity), endogenous control, Raji cells constitutively expressing oligonucleotide 4 (retrovirus vector)): 6428.135
GRα [6, 14]: 4803.456
GRβ [6, 14]: 1866.325
GRα [6, 15]: increases the expression level of GRα
GRβ [6, 15]: decreases the expression level of GRβ
